The experiment relates to CD8F1 mice, subcutaneous mammary adenocarcinoma, T/C%. As to the kind of experiment: NCI In Vivo Anticancer Drug Screen. Data for tumor model Mammary Adenocarcinoma CD8F1 (subcutaneous) in CD8F1. Conditions: higher = larger tumour. Put shortly:
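Tumor-bearing mice, transplantable model; readout survival or tumor size; value = treated (T) / vehicle control (C).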

Values joined by “and” are separate entries in the source; they are usually repeats but may differ in a detail not shown here. Equal values may be shown once. Inconclusive results are not listed.

Turning to `CC[C@@]1(O)C(=O)OCc2c1cc1n(c2=O)Cc2cc3ccccc3nc2-1`, the T/C by setting is: (endpoint: median tumor weight change, dose: 1.5 mg/kg/injection, schedule: Q01DX001 (ip), vehicle: saline with Tween-80) 64 % of control; (endpoint: median tumor weight change, dose: 6.0 mg/kg/injection, schedule: Q01DX001 (ip), vehicle: saline with Tween-80) 56 % of control and 73 % of control; (endpoint: median tumor weight change, dose: 12.0 mg/kg/injection, schedule: Q01DX001 (ip), vehicle: saline with Tween-80) 62 % of control; (endpoint: median tumor weight change, dose: 24.0 mg/kg/injection, schedule: Q01DX001 (ip), vehicle: saline with Tween-80) 5 % of control and 10 % of control.

As to `OCC1OC(n2cnc3c(=S)nc[nH]c32)C(O)C1O` (stereo not given), the T/C by setting is: (endpoint: median tumor weight (est.), dose: 50.0 mg/kg/injection, schedule: Q07DX005 (ip), vehicle: saline with Tween-80) 23 % of control; (endpoint: median tumor weight (est.), dose: 100.0 mg/kg/injection, schedule: Q07DX005 (ip), vehicle: saline with Tween-80) 34 % of control; (endpoint: median tumor weight (est.), dose: 200.0 mg/kg/injection, schedule: Q07DX005 (ip), vehicle: saline with Tween-80) 13 % of control and 37 % of control; (endpoint: median tumor weight (est.), dose: 400.0 mg/kg/injection, schedule: Q07DX005 (ip), vehicle: saline with Tween-80) 8 % of control and 15 % of control; (endpoint: median tumor weight change, dose: 25.0 mg/kg/injection, schedule: Q01DX001 (ip), vehicle: saline with Tween-80) 73 % of control; (endpoint: median tumor weight change, dose: 50.0 mg/kg/injection, schedule: Q01DX001 (ip), vehicle: saline with Tween-80) 71 % of control. The T/C reads like this: (endpoint: median tumor weight change, dose: 100.0 mg/kg/injection, schedule: Q01DX001 (ip), vehicle: saline with Tween-80) 78 % of control; (endpoint: median tumor weight change, dose: 125.0 mg/kg/injection, schedule: Q01DX001 (ip), vehicle: saline) 78 % of control; (endpoint: median tumor weight change, dose: 200.0 mg/kg/injection, schedule: Q01DX001 (ip), vehicle: saline with Tween-80) 56 % of control; (endpoint: median tumor weight change, dose: 250.0 mg/kg/injection, schedule: Q01DX001 (ip), vehicle: Klucel (hydroxypropylcellulose) (HPC)) 89 % of control; (endpoint: median tumor weight change, dose: 250.0 mg/kg/injection, schedule: Q01DX001 (ip), vehicle: saline) 72 % of control; (endpoint: median tumor weight change, dose: 400.0 mg/kg/injection, schedule: Q01DX001 (ip), vehicle: saline with Tween-80) 60 % of control. Moreover, the T/C (endpoint: median tumor weight change, dose: 500.0 mg/kg/injection, schedule: Q01DX001 (ip), vehicle: Klucel (hydroxypropylcellulose) (HPC)) was 79 % of control; the T/C (endpoint: median tumor weight change, dose: 500.0 mg/kg/injection, schedule: Q01DX001 (ip), vehicle: saline) is 97 % of control; the T/C (endpoint: median tumor weight change, dose: 1000.0 mg/kg/injection, schedule: Q01DX001 (ip), vehicle: Klucel (hydroxypropylcellulose) (HPC)) is 52 % of control; the T/C (endpoint: median tumor weight change, dose: 1000.0 mg/kg/injection, schedule: Q01DX001 (ip), vehicle: saline) is 53 % of control; the T/C (endpoint: median tumor weight change, dose: 2000.0 mg/kg/injection, schedule: Q01DX001 (ip), vehicle: Klucel (hydroxypropylcellulose) (HPC)) is 26 % of control; the T/C (endpoint: median tumor weight change, dose: 2000.0 mg/kg/injection, schedule: Q01DX001 (ip), vehicle: saline) was 67 % of control.

On to `CSc1cc(=O)n2c3ccccc3c3ccnc1c32`, for which the T/C is, setting by setting: (endpoint: median tumor weight (est.), dose: 2.5 mg/kg/injection, schedule: Q07DX005 (ip), vehicle: saline with Tween-80) 77 % of control; (endpoint: median tumor weight (est.), dose: 5.0 mg/kg/injection, schedule: Q07DX005 (ip), vehicle: saline with Tween-80) 74 % of control; (endpoint: median tumor weight (est.), dose: 10.0 mg/kg/injection, schedule: Q07DX005 (ip), vehicle: saline with Tween-80) 74 % of control; (endpoint: median tumor weight (est.), dose: 20.0 mg/kg/injection, schedule: Q07DX005 (ip), vehicle: saline with Tween-80) 65 % of control; (endpoint: median tumor weight (est.), dose: 40.0 mg/kg/injection, schedule: Q07DX005 (ip), vehicle: saline with Tween-80) 119 % of control; (endpoint: median tumor weight (est.), dose: 80.0 mg/kg/injection, schedule: Q07DX005 (ip), vehicle: saline with Tween-80) 59 % of control.

In the case of `O=C1c2cccc3cc([N+](=O)[O-])cc(c23)C(=O)N1CCN1CCCC1`, the T/C (endpoint: median tumor weight change, dose: 7.0 mg/kg/injection, schedule: Q01DX001 (ip), vehicle: saline with Tween-80) was 117 % of control; the T/C (endpoint: median tumor weight change, dose: 14.06 mg/kg/injection, schedule: Q01DX001 (ip), vehicle: saline with Tween-80) was 69 % of control; the T/C (endpoint: median tumor weight change, dose: 28.12 mg/kg/injection, schedule: Q01DX001 (ip), vehicle: saline with Tween-80) is 118 % of control; the T/C (endpoint: median tumor weight change, dose: 31.25 mg/kg/injection, schedule: Q01DX001 (ip), vehicle: saline with Tween-80) was 63 % of control; the T/C (endpoint: median tumor weight change, dose: 56.25 mg/kg/injection, schedule: Q01DX001 (ip), vehicle: saline with Tween-80) is 81 % of control; the T/C (endpoint: median tumor weight change, dose: 62.5 mg/kg/injection, schedule: Q01DX001 (ip), vehicle: saline with Tween-80) is 20 % of control. The T/C (endpoint: median tumor weight change, dose: 112.5 mg/kg/injection, schedule: Q01DX001 (ip), vehicle: saline with Tween-80) was 18 % of control.

As for `COc1ccc(-c2csc(=[N+]3CCCCC3)s2)cc1`, the T/C by setting is: (endpoint: median tumor weight change, dose: 31.0 mg/kg/injection, schedule: Q01DX001 (ip), vehicle: saline with Tween-80) 194 % of control; (endpoint: median tumor weight change, dose: 31.0 mg/kg/injection, schedule: Q01DX001 (ip), vehicle: water) 75 % of control.

In the case of `O=C(O)CC(NC(=O)CP(=O)(O)O)C(=O)O` (stereo not given), the T/C runs as follows: (endpoint: median tumor weight (est.), dose: 25.0 mg/kg/injection, schedule: Q07DX005 (ip), vehicle: saline) 92 % of control; (endpoint: median tumor weight (est.), dose: 50.0 mg/kg/injection, schedule: Q07DX005 (ip), vehicle: saline) 94 % of control; (endpoint: median tumor weight (est.), dose: 100.0 mg/kg/injection, schedule: Q07DX005 (ip), vehicle: saline) 62 % of control; (endpoint: median tumor weight (est.), dose: 200.0 mg/kg/injection, schedule: Q07DX005 (ip), vehicle: saline) 56 % of control; (endpoint: median tumor weight (est.), dose: 400.0 mg/kg/injection, schedule: Q07DX005 (ip), vehicle: saline) 9 % of control; (endpoint: median tumor weight change, dose: 100.0 mg/kg/injection, schedule: Q01DX001 (ip), vehicle: saline) 81 % of control. For the same compound, the T/C runs as follows: (endpoint: median tumor weight change, dose: 200.0 mg/kg/injection, schedule: Q01DX001 (ip), vehicle: saline) 92 % of control; (endpoint: median tumor weight change, dose: 400.0 mg/kg/injection, schedule: Q01DX001 (ip), vehicle: saline) 85 % of control; (endpoint: median tumor weight change, dose: 800.0 mg/kg/injection, schedule: Q01DX001 (ip), vehicle: saline) 66 % of control.

For the compound `Cc1c2ccc3ccccc3c2c[n+]2ccccc12`, the T/C is, setting by setting: (endpoint: median tumor weight (est.), dose: 2.5 mg/kg/injection, schedule: Q07DX005 (ip), vehicle: Klucel (hydroxypropylcellulose) (HPC)) 84 % of control; (endpoint: median tumor weight (est.), dose: 5.0 mg/kg/injection, schedule: Q07DX005 (ip), vehicle: Klucel (hydroxypropylcellulose) (HPC)) 86 % of control; (endpoint: median tumor weight (est.), dose: 10.0 mg/kg/injection, schedule: Q07DX005 (ip), vehicle: Klucel (hydroxypropylcellulose) (HPC)) 83 % of control; (endpoint: median tumor weight (est.), dose: 20.0 mg/kg/injection, schedule: Q07DX005 (ip), vehicle: Klucel (hydroxypropylcellulose) (HPC)) 57 % of control.

As to `CCCCNC(C)C1(O)Cc2c(O)c3c(c(O)c2C(OC2CC(N)C(O)C(C)O2)C1)C(=O)c1c(OC)cccc1C3=O` (stereo not given), the T/C reads like this: (endpoint: median tumor weight (est.), dose: 28.5 mg/kg/injection, schedule: Q07DX005 (ip), vehicle: water) 100 % of control; (endpoint: median tumor weight (est.), dose: 42.7 mg/kg/injection, schedule: Q07DX005 (ip), vehicle: water) 154 % of control; (endpoint: median tumor weight (est.), dose: 64.0 mg/kg/injection, schedule: Q07DX005 (ip), vehicle: water) 66 % of control; (endpoint: median tumor weight (est.), dose: 96.0 mg/kg/injection, schedule: Q07DX005 (ip), vehicle: water) 20 % of control; (endpoint: median tumor weight change, dose: 62.5 mg/kg/injection, schedule: Q01DX001 (ip), vehicle: suspension in saline) 98 % of control; (endpoint: median tumor weight change, dose: 125.0 mg/kg/injection, schedule: Q01DX001 (ip), vehicle: suspension in saline) 65 % of control. Moreover, the T/C by setting is: (endpoint: median tumor weight change, dose: 250.0 mg/kg/injection, schedule: Q01DX001 (ip), vehicle: suspension in saline) 74 % of control; (endpoint: median tumor weight change, dose: 500.0 mg/kg/injection, schedule: Q01DX001 (ip), vehicle: suspension in saline) 15 % of control; (endpoint: median tumor weight change, dose: 1000.0 mg/kg/injection, schedule: Q01DX001 (ip), vehicle: suspension in saline) 3 % of control.

Take `C=CS(C=C)=NS(=O)(=O)c1ccc(C)cc1`: the T/C (endpoint: median tumor weight (est.), dose: 3.12 mg/kg/injection, schedule: Q07DX005 (ip), vehicle: Klucel (hydroxypropylcellulose) (HPC)) is 94 % of control; the T/C (endpoint: median tumor weight (est.), dose: 6.25 mg/kg/injection, schedule: Q07DX005 (ip), vehicle: Klucel (hydroxypropylcellulose) (HPC)) was 101 % of control; the T/C (endpoint: median tumor weight (est.), dose: 12.5 mg/kg/injection, schedule: Q07DX005 (ip), vehicle: Klucel (hydroxypropylcellulose) (HPC)) was 89 % of control.

As to `O=C(NO)c1ccccc1`, the T/C (endpoint: median tumor weight (est.), dose: 25.0 mg/kg/injection, schedule: Q07DX005 (ip), vehicle: suspension in saline) is 46 % of control; the T/C (endpoint: median tumor weight (est.), dose: 50.0 mg/kg/injection, schedule: Q07DX005 (ip), vehicle: suspension in saline) is 109 % of control; the T/C (endpoint: median tumor weight (est.), dose: 100.0 mg/kg/injection, schedule: Q07DX005 (ip), vehicle: suspension in saline) was 293 % of control.

The record behind these values is PubChem BioAssay AID220 (DTP/NCI, 2004).
